Experiments:
[1] = Growth inhibition of human HCT15 cells; format: functional; conditions: for GI50: HCT-15; for CC50: HCT-15, read-out: LC50 (the source's name)
NCI-H322M = assay: Growth inhibition of human NCI-H322M cells; format: functional
[2] = Growth inhibition of human NCI60 cells assessed as cell growth; format: functional; set-up: concentration or dose not given beside the values
HOP-62 = assay: Growth inhibition of human HOP62 cells; format: functional; conditions: for CC50: read-out: LC50 (the source's name)
[3] = Growth inhibition of human HOP92 cells; format: functional; conditions: for GI50: HOP-92; for CC50: HOP-92, read-out: LC50 (the source's name)
[4] = Growth inhibition of human EKVX cells; format: functional; conditions: for CC50: read-out: LC50 (the source's name)
[5] = Growth inhibition of human UACC62 cells; format: functional; conditions: for GI50: UACC-62; for CC50: UACC-62, read-out: LC50 (the source's name)
U-251 = assay: Growth inhibition of human U251 cells; format: functional
[6] = Growth inhibition of human LOXIMVI cells; format: functional; conditions: LOX IMVI; for CC50: read-out: LC50 (the source's name)
[7] = Growth inhibition of human SF539 cells; format: functional; conditions: for GI50: SF-539; for CC50: SF-539, read-out: LC50 (the source's name)
MDA-MB-435 = assay: Growth inhibition of human MDA-MB-435 cells; format: functional; conditions: for CC50: read-out: LC50 (the source's name)
SK-MEL-28 = assay: Growth inhibition of human SK-MEL-28 cells; format: functional; conditions: for CC50: read-out: LC50 (the source's name)
Staphylococcus aureus = assay: Antimicrobial activity against Staphylococcus aureus ATCC 25923 after 12 to 18 hrs by 2-fold serial dilution method; format: functional
NCI-H226 = assay: Growth inhibition of human NCI-H226 cells; format: functional; conditions: for CC50: read-out: LC50 (the source's name)
A549 = assay: Growth inhibition of human A549 cells; format: functional; conditions: for CC50: read-out: LC50 (the source's name)
SNB-75 = assay: Growth inhibition of human SNB75 cells; format: functional; conditions: for CC50: read-out: LC50 (the source's name)
[8] = Growth inhibition of human SF295 cells; format: functional; conditions: SF-295
KM12 = assay: Growth inhibition of human KM12 cells; format: functional; conditions: for CC50: read-out: LC50 (the source's name)
SF-268 = assay: Growth inhibition of human SF268 cells; format: functional; conditions: for CC50: read-out: LC50 (the source's name)
HCT-116 = assay: Growth inhibition of human HCT116 cells; format: functional; conditions: for CC50: read-out: LC50 (the source's name)
SW-620 = assay: Growth inhibition of human SW620 cells; format: functional; conditions: for CC50: read-out: LC50 (the source's name)
M14 = assay: Growth inhibition of human M14 cells; format: functional; conditions: for CC50: read-out: LC50 (the source's name)
[9] = Growth inhibition of human HCC2998 cells; format: functional; conditions: for GI50: HCC 2998; for CC50: HCC 2998, read-out: LC50 (the source's name)
NCI-H460 = assay: Growth inhibition of human NCI-H460 cells; format: functional; conditions: for CC50: read-out: LC50 (the source's name)
Malme-3M = assay: Growth inhibition of human MALME-3M cells; format: functional; conditions: for CC50: read-out: LC50 (the source's name)
SK-MEL-2 = assay: Growth inhibition of human SK-MEL-2 cells; format: functional; conditions: for CC50: read-out: LC50 (the source's name)
NCI-H522 = assay: Growth inhibition of human NCI-H522 cells; format: functional; conditions: for CC50: read-out: LC50 (the source's name)
COLO 205 = assay: Growth inhibition of human COLO205 cells; format: functional; conditions: for CC50: read-out: LC50 (the source's name)
NCI-H23 = assay: Growth inhibition of human NCI-H23 cells; format: functional; conditions: for CC50: read-out: LC50 (the source's name)
HT-29 = assay: Growth inhibition of human HT-29 cells; format: functional
SNB-19 = assay: Growth inhibition of human SNB19 cells; format: functional
[10] = Growth inhibition of human UACC257 cells; format: functional; conditions: for GI50: UACC-257; for CC50: UACC-257, read-out: LC50 (the source's name)
SK-MEL-5 = assay: Growth inhibition of human SK-MEL-5 cells; format: functional
[11] = tested on: NCI-60 human cancer cell line panel (Homo sapiens); assay: Anticancer activity against NCI 60 human cancer cell lines assessed as mean cell growth in single dose assay

## Cc1ccc(-n2n[n+](C)c3c2C(=O)c2ccccc2C3=O)cc1.O=S(=O)([O-])C(F)(F)F
[1]
  GI50: 2440 nM
  CC50: 41200 nM
NCI-H322M
  GI50: 880 nM
NCI-H322M; read-out: LC50 (the source's name)
  CC50: 5380 nM
[2]
  Activity: 11.53%
HOP-62
  GI50: 2160 nM
  CC50: 17800 nM
[3]
  GI50: 420 nM
  CC50: 46800 nM
[4]
  GI50: 4160 nM
  CC50: 46800 nM
[5]
  GI50: 1650 nM
  CC50: 6380 nM
U-251
  GI50: 2430 nM
  LC50: 31800 nM
[6]
  GI50: 1800 nM
  CC50: 23000 nM
[7]
  GI50: 1970 nM
  CC50: 9890 nM
MDA-MB-435
  GI50: 170 nM
  CC50: 600 nM
SK-MEL-28
  GI50: 2650 nM
  CC50: 36500 nM
Staphylococcus aureus
  MIC: 4 µg/mL
NCI-H226
  GI50: 2930 nM
  CC50: 36100 nM
A549
  GI50: 1110 nM
  CC50: 10000 nM
SNB-75
  GI50: 2090 nM
  CC50: 8910 nM
[8]
  GI50: 1040 nM
  LC50 (concentration killing 50% of cells): 5400 nM
KM12
  GI50: 1380 nM
  CC50: 13900 nM
SF-268
  GI50: 3140 nM
  CC50: 4430 nM
HCT-116
  GI50: 1550 nM
  CC50: 7920 nM
SW-620
  GI50: 1760 nM
  CC50: 19200 nM
M14
  GI50: 260 nM
  CC50: 3570 nM
[9]
  GI50: 1130 nM
  CC50: 5400 nM
NCI-H460
  GI50: 330 nM
  CC50: 6130 nM
Malme-3M
  GI50: 320 nM
  CC50: 13000 nM
SK-MEL-2
  GI50: 2170 nM
  CC50: 41100 nM
NCI-H522
  GI50: 8140 nM
  CC50: 60000 nM
COLO 205
  GI50: 430 nM
  CC50: 4430 nM
NCI-H23
  GI50: 650 nM
  CC50: 6070 nM
HT-29
  GI50: 2100 nM
  LC50: > 100000 nM
SNB-19
  GI50: 1390 nM
  LC50: 5480 nM
[10]
  GI50: 1850 nM
  CC50: 17700 nM

## C[n+]1nn(-c2ccccc2)c2c1C(=O)c1ccccc1C2=O.[Cl-]
[1]
  GI50: 1290 nM
  CC50: 6370 nM
SK-MEL-5
  GI50: 180 nM
  LC50 (lethal concentration 50): 550 nM
[2]
  Activity: -10.18%
HOP-62
  GI50: 760 nM
  CC50: 5570 nM
[3]
  GI50: 4170 nM
  CC50: 9150 nM
[4]
  GI50: 1890 nM
  CC50: 12600 nM
[5]
  GI50: 1090 nM
  CC50: 5230 nM
U-251
  GI50: 1260 nM
  LC50: 4330 nM
[6]
  GI50: 1160 nM
  CC50: 5550 nM
[7]
  GI50: 1090 nM
  CC50: 4720 nM
MDA-MB-435
  GI50: 200 nM
  CC50: 580 nM
SK-MEL-28
  GI50: 1190 nM
  CC50: 6470 nM
Staphylococcus aureus
  MIC: 8 µg/mL
NCI-H226
  CC50: 5300 nM
A549
  GI50: 350 nM
  CC50: 5460 nM
SNB-75
  GI50: 640 nM
  CC50: 5870 nM
[8]
  GI50: 540 nM
  LC50 (concentration killing 50% of cells): 4970 nM
KM12
  GI50: 820 nM
  CC50: 9300 nM
SF-268
  GI50: 1640 nM
  CC50: > 100000 nM
HCT-116
  GI50: 320 nM
  CC50: 1500 nM
SW-620
  GI50: 550 nM
  CC50: 3840 nM
M14
  GI50: 200 nM
  CC50: 550 nM
[9]
  GI50: 340 nM
  CC50: 3690 nM
NCI-H460
  GI50: 300 nM
  CC50: 4230 nM
Malme-3M
  GI50: 210 nM
  CC50: 650 nM
SK-MEL-2
  GI50: 2180 nM
  CC50: 6440 nM
NCI-H522
  GI50: 11500 nM
  CC50: 7740 nM
COLO 205
  GI50: 190 nM
  CC50: 620 nM
NCI-H23
  GI50: 980 nM
  CC50: 6540 nM
HT-29
  GI50: 400 nM
  LC50: > 100000 nM
SNB-19
  GI50: 1070 nM
  LC50: 4340 nM
[10]
  GI50: 1700 nM
  CC50: 4490 nM

## CCCCCCCCn1n[n+](C)c2c1C(=O)c1ccccc1C2=O.[Cl-]
Staphylococcus aureus
  MIC: 0.032 µg/mL
[11]
  Activity: 44.8%
